Tested on: GFP-encoding measles virus
Experiment: Measles virus replication, infected cells counted with PerkinElmer Ensight system (Part II)
Details: 75 μg/mL, quadruplets
Description: Vero-Slam cells were incubated with decreasing concentration of the solubilized test compounds. All concentrations were analyzed on three independent six-well plates or by independent six replicates on a black 96well plate (PerkinElmer). Cells were infected with GFP-encoding wild-type measles virus and incubated for two days. […] Part II: Two days after infection measles virus-infected cells and GFP expressing cells were directly counted using the PerkinElmer Ensight system with optical cell culture plates. The instrument was controlled by manual counting. Viral titers were calculated as infectious particles per mL.
However, in contrast to the previous experiments, infected cells were counted with the PerkinElmer Ensight system, since this system allows to quantify changes in viral titers on single cell level.
However, only non-toxic compound concentrations were applied.
The cells were subsequently infected with GFP-encoding measles virus, and GFP expressing cells were quantified with the Perkin Elmer Ensight reader. All infections were performed in triplicate assays.

Q: `C[C@@H]1O[C@@H](OC[C@H]2O[C@@H](Oc3cc4c(O)cc(O)cc4[o+]c3-c3cc(O)c(O)c(O)c3)[C@H](O)[C@@H](O)[C@@H]2O)[C@H](O)[C@H](O)[C@H]1O` [D3R, delphinidin 3-rutinoside] was tested. Which “number of infected cells” value did it give?
A: Its value is “reduced the number of infected cells”.

Reference: patent US12076357B2, “Preparations containing berry extracts for use in the prophylaxis and/or treatment of viral infections caused by Paramyxoviridae” (Evonik Operations GmbH, priority 2019, dated 2024)
